Results: patent US12616691B2, “Use of fatty acid oxidation inhibitors as antimicrobials” (Washington University in St. Louis, priority 2018, dated 2026)
In brackets after ≈: the same amount, converted by molar mass. Like-named read-outs stand apart in the source and are kept apart here.

Tests used:
[1] = tested on: Mtb (H37Rv); experiment: MIC on Mtb (H37Rv) in liquid; assay type: cell-based, Mycobacterium tuberculosis; settings: for MIC: Mycobacterium tuberculosis
[2] = tested on: Mtb; experiment: MIC against Mtb in human THP1 cells; assay type: cell-based, Mycobacterium tuberculosis
From the text: If CPT-1 and 3-KAT are the relevant antimicrobial targets, respectively, concordance in the potency of the compounds is anticipated in the assays. […] The MIC of TMZ against Mtb in human THP1 cells was approximately […].

[3] = tested on: BMDMs; experiment: Macrophage viability (calcein-AM); assay type: cell-based, murine; settings: 72 hours
Experimental: FIG. 4B depicts the effect of metformin and oxfenicine on macrophage viability. BMDMs were treated with the indicated concentration of compound for 72 hours, and viability was assessed using the cellular dye, calcein-AM, and normalized to untreated controls (--). Data are mean+/−SD.
Importantly, plasma concentrations of TMZ in patients treated for angina (60 mg/day) are 70-100 nM, in line with the ability of TMZ to inhibit FAO in intact hearts at 100 nM. […] BMDMs were treated with the indicated concentration of compound for 72 hours, and viability was assessed using the cellular dye, calcein-AM, and normalized to untreated controls (--).
The antimicrobial activity and FAO inhibition was analyzed for cellular toxicity. BMDMs were treated with the indicated concentration of compound for 72 hours, and viability was assessed using the cellular dye, calcein-AM, and normalized to untreated controls (--).

[4] = design: species or system mice; settings: in vivo
Experimental: A pharmacokinetics (PK) study of TMZ in C57BL/6 mice was performed. […] Therefore, subcutaneous osmotic pumps were used to maintain steady state plasma levels of TMZ. A second PK study was performed using subcutaneous osmotic pumps (Alzet Osmotic Pumps) to establish the optimal infusion rate and dosing for a subsequent efficacy study. TMZ steady state exposure in mice was successfully achieved with the use of subcutaneous osmotic pumps.

[5] = tested on: H37Rv; experiment: Efficacy of TMZ in acute TB infection in mice (CFU in lungs and spleen); assay type: in vivo, Mycobacterium tuberculosis; settings: 16.8 mg/kg/day, 2 weeks
[6] = tested on: M. abscessus; experiment: Intracellular growth of M. abscessus in RAW264.7 cells and BMDMs (CFU); assay type: cell-based, Mycobacterium abscessus; settings: RAW264.7 cells and wt BMDMs, 500 nM
[7] = tested on: p62; experiment: Autophagy induction: p62 co-localization with Mtb and p62 puncta in BMDMs; assay type: cell-based; settings: 5 nM
Experimental: Wild type BMDMs were infected with H37Rv expressing DsRed at MOI 1:5 for 4 hours. After bacterial uptake, the culture medium was supplemented with TMZ (5 nm). At 24 hours post infection (hpi), samples were fixed and immunostained with p62 (green). Alternatively, bacterial numbers were enumerated by CFU at 3 days post infection (dpi). For IF, images were captured using a confocal microscope equipped with a 60× oil immersion objective lens. To quantify co-localation of Mtb and autophagosomes each bacteria was converted to a region of interest (ROI) and the mean fluorescence intensity of the p62 signal was measured. To assess autophagy induction, the total p62 puncta per cell in shapes that were untreated or treated with TMZ. IFN-γ, which activates autophagy, was used as a positive control.

[8] = tested on: total cellular ROS; experiment: Total cellular ROS (CellRox staining) in macrophages; assay type: cell-based
Experimental: Total cellular ROS levels were compared in FAO inhibitor-treated and untreated samples using CellRox (Molecular Probes) staining. Macrophages were infected as previously described and co-localization of Mth with subunits of the NADPH oxidase (p40^phox and gp91^phox/NOX2) were monitored in FAO inhibitor-treated and untreated samples. To determine whether FAO inhibition induced oxidative stress in the host, uninfected RAW 264.7 cells were treated with TMZ at 5 nM and 500 nM and ETM at 50 μM and total cellular ROS was determined at 1, 3, and 24 hours post-treatment using CellRox dye. In parallel, tert-butyl hydroperoxide (0.5 mM tBHP) was used as a positive control. The samples were imaged using confocal microscopy and the fluorescence intensity of each cell was quantified.

[9] = tested on: mitochondrial ROS; experiment: Mitochondrial ROS (mitoSOX) in uninfected BMDMs; assay type: cell-based; settings: TMZ 500 nM 3 hours; antimycin 30 μM, rotenone 10 μM 30 minutes
Experimental: Mitochondrial ROS production was measured in macrophages treated with TMZ in combination with ETC inhibitors antimycin and rotenone. Rotenone inhibits Complex I (NADH coenzymeQ reductase) and antimycin is an inhibitor of Complex III (coenzyme Q: cytochrome C oxidoreductase). Uninfected BMDMs were treated with 500 nM TMZ for 3 hours. Thirty minutes prior to termination of the experiment, antimycin (30 μM) and rotenone (10 μM) were added. Menadione (60 μM, 30 mins), which causes mitochondrial depolarization, was used as a positive control. Mitochondrial ROS production was increased in samples treated with TMZ, antimycin and rotenone (FIG. 14A). However, contrasting results were observed when TMZ was used in combination with the ETC inhibitors.

[10] = tested on: BMDMs; experiment: OCR and ECAR by SeaHorse metabolic flux assay in BMDMs; assay type: cell-based; settings: wild type BMDMs, 5 nM, 3 hours
Experimental: (§1) Oxygen consumption rate (OCR) and extracellular acidification rate (ECAR) was measured using SeaHorse Analyzers in uninfected wild type and FAO-deficient carnitine palmitoyltransferase 2 KO (Cpt2 cKO) BMDMs treated with 5 nM TMZ. Additionally, whether FAO inhibitors promoted pro-inflammatory signaling was tested. Wild type macrophages were infected with H37Rv and treated with 5 nM TMZ for 24 and 72 hpi. Following filter sterilization, sample supernatants were examined for pro-inflammatory cytokines including, IL-1β, IL-6, TNF-α, and the anti-inflammatory cytokine IL-10.

[11] = tested on: IL-6, TNF-α, IL-1α/β, and IL-10; experiment: Cytokine levels in supernatants of BMDMs; assay type: cell-based; settings: wild type BMDMs, 5 nM, 24 and 72 hpi
Experimental: as §1

[12] = tested on: LC3; experiment: Autophagy flux (LC3 with and without bafilomycin A1) in H37Rv-infected BMDMs; assay type: cell-based; settings: 500 nM, 3 hours
[13] = tested on: gp91phox/NOX2; experiment: Co-localization of Mtb with NADPH oxidase subunit NOX2 in BMDMs; assay type: cell-based; settings: 24 hours
[14] = biological target: T1, long-chain 3-KAT (Rattus norvegicus, UniProt Q60587); settings: rat heart mitochondria; cited from earlier work
T1 construct: from tissue; host or cells: rat heart mitochondria

[15] = tested on: FAO; settings: cited from earlier work
[16] = human, in vivo, 20 mg; cited from earlier work
[17] = tested on: FAO; settings: murine and human monocyte-derived macrophages; cited from earlier work
[18] = Mtb (H37Rv) in liquid, read-out: MIC

T1 sequence (Q60587 35-475): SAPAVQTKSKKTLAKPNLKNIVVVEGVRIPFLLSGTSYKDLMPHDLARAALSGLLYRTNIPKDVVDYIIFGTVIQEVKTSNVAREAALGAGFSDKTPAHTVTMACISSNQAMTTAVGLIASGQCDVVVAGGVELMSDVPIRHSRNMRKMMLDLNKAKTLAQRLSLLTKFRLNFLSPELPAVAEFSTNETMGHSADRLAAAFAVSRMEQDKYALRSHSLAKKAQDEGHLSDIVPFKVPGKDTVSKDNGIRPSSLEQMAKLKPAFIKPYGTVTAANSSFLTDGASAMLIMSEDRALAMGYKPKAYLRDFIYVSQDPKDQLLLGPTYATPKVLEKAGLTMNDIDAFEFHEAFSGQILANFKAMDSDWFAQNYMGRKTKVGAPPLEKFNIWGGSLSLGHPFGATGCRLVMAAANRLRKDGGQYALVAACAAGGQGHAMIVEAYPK
T1 sequence (Q64428 37-763 partner): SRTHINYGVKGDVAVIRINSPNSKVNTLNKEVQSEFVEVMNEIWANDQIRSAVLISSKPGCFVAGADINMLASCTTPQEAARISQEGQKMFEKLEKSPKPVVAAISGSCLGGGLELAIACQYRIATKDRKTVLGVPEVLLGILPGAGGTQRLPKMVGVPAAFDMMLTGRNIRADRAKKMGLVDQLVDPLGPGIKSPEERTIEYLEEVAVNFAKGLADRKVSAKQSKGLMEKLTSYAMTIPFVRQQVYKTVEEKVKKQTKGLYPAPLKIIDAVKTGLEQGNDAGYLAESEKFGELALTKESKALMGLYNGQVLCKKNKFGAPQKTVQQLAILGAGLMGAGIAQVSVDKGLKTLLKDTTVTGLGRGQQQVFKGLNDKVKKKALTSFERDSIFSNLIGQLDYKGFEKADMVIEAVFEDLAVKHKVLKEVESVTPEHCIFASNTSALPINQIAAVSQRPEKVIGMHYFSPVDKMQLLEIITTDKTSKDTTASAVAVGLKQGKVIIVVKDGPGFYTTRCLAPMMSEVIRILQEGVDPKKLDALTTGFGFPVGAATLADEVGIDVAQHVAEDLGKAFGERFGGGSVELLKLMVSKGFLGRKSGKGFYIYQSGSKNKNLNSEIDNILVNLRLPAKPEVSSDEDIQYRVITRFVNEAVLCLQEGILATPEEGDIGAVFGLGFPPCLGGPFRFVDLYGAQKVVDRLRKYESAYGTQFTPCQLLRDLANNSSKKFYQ

For `COc1ccc(CN2CCNCC2)c(OC)c1OC` [Trimetazidine, 1-(2,3,4-trimethoxybenzyl)piperazine], which MIC ([1]; H37RV) is on record?
Its MIC is 1000 µM (≈ 266 µg/mL).

What about the “MIC against Mtb in human THP1 cells” value [2] of the same compound?
The value was “approximately 50 nM”.

And the macrophage toxicity [3]?
The macrophage toxicity was “not related to macrophage toxicity”.

What about the “predicted free drug concentrations” value ([4]; C57BL/6, mouse, 16.8 mg/kg/day) of the same compound?
The value was 135 nM.

What about the half-life ([4]; mouse) of the same compound?
The half-life was “less than an hour”.

What about the “reduction in Mtb CFUs in the lungs” value ([5]; C57Bl/6 mice) of the same compound?
The value was 50-70%.

What about the “bacterial burden in lung and spleen tissues” value ([5]; vs untreated control mice) of the same compound?
The value was “significantly reduced bacterial burden”.

And the “M. abscessus infection (CFU)” value [6]?
The value was “significantly decreased infection”.

What about the “total number of p62 puncta in macrophages” value [7] of the same compound?
Its value is “significantly increased”.

What about the “co-localization of H37Rv and p62” value ([7]; 24 hpi) of the same compound?
The value was “increased”.

What about the “total cell ROS in Mtb-infected Atg5 KO BMDMs” value ([8]; 3 hour treatment) of the same compound?
The value was “increased ROS signal”.

And the “total cell ROS in Mtb-infected Nox2 KO BMDMs” value ([8]; 24 hours, 5 nM)?
The value was “significant increase in ROS”.

What about the “total cell ROS in Mtb-infected wild type BMDMs” value ([8]; 24 hours, 5 nM) of the same compound?
Its value is “induced ROS”.

What about the “mitochondrial ROS production” value [9] of the same compound?
The value was “increased”.

And the ECAR [10]?
Its ECAR is “decrease”.

And the “levels of IL-6, TNF-α, IL-1α/β, and IL-10” value [11]?
Its value is “No significant difference”.

And the autophagy flux [12]?
Its autophagy flux is “No changes”.

What about the “co-localization of Mtb and NOX2” value [13] of the same compound?
Its value is “increased”.

What about the IC50 [14] of the same compound?
Its IC50 is about 0.075 µM.

And the “concentration that inhibits FAO in intact hearts” value [15]?
The value was 100 nM.

What about the Cmax [16] of the same compound?
The Cmax was 313 nM.

With `CCOC(=O)C1(CCCCCCOc2ccc(Cl)cc2)CO1` (centres unmarked) [Etomoxir, ethyl 2-[6-(4-chlorophenoxy)hexyl]oxirane-2-carboxylate] as the compound, how does the MIC [1, 18] read?
The MIC was over 250 µM.

What about the “direct effect on Mtb growth” value ([1]; ten times the dose that inhibited intracellular Mtb) of the same compound?
The value was “did not directly prevent Mtb growth”.

And the “concentration that blocks FAO in macrophages” value [17]?
The value was 10 to 25 µM.

Which MIC [1, 18] does the source give for `NNC(=O)c1ccncc1` [INH, isoniazid] here?
The MIC was under 0.3 µM.

Which “mitochondrial ROS production” value [9] does the source give for `C=C(C)[C@H]1Cc2c(ccc3c2O[C@@H]2COc4cc(OC)c(OC)cc4[C@@H]2C3=O)O1` [rotenone] here?
The value was “increased”.

For antimycin, which “mitochondrial ROS production” value [9] is on record?
Its value is “increased”.

Which MIC [1, 18] does the source give for `C1CCC(C(CC2CCCCN2)C2CCCCC2)CC1` (centres unmarked) [Perhexiline, 2-(2,2-dicyclohexylethyl)piperidine] here?
Its MIC is over 100 µM.

Which MIC [1, 18] does the source give for `CN(C)C(=N)N=C(N)N` [Metformin, metformin] here?
Its MIC is over 15000 µM.
